In brackets after ≈: the same amount, converted by molar mass. Like-named read-outs stand apart in the source and are kept apart here. Starred links: 1 amine or outer side, 2 acyl side, 3 side chain; linkers in the order of their positions; H or OH if unused. Non-standard residues stand in square brackets, D forms with d. Residues, ends and D or L forms follow the SMILES beside them. Groups on a side chain read outwards from the residue. *: point of attachment. γGlu = O=C(O)[C@H](CCC(=O)[*:2])N[*:1]; Palmitoyl = CCCCCCCCCCCCCCCC(=O)*; AEEA = NCCOCCOCC(=O)O; Aib = CC(C)(N)C(=O)O
What was measured:
GLP-1R = GLP-1R (Homo sapiens, UniProt P43220); assay: GLP-1 receptor-mediated cAMP induction, luciferase reporter gene antagonism assay; type: cell-based; parameters: host or cells: HEK 293; conditions: antagonism of 0.05 nM GLP-1, HEK 293 cells
GLP-1R, sequence (P43220 24-463): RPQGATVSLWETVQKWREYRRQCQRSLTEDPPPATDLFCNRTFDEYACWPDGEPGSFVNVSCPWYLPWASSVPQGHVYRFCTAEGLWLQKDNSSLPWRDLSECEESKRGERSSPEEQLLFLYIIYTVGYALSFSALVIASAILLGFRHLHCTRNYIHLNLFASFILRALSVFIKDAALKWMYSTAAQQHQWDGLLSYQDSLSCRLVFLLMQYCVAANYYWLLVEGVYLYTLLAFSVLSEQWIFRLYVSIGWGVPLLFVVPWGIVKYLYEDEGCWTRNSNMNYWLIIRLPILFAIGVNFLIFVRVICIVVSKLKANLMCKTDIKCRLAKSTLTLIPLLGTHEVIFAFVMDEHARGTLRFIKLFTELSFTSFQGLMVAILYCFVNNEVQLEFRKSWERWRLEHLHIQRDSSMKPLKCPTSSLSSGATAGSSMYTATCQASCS
Procedure: GLP-1 Receptor-Mediated cAMP Induction The ability of peptides to stimulate or block cAMP induction at the GLP-1 receptor was examined by a luciferase-based reporter gene assay. Cotransfection of HEK 293 cells with the human GLP-1 receptor (Open Biosystems) and a cAMPinducible (cAMPresponsive element) luciferase gene constituted the cellular construct where receptor activation could be measured. Bioassays were performed by first serum depriving the cells for 16 h in 0.25% bovine growth serum (HyClone)-supplemented Dulbecco's modified Eagle's medium (Invitrogen) and then adding serial dilutions of the peptides over the appropriate concentration ranges in 96-well poly-D-lysine-coated plates (BD Biosciences). For antagonism assays, a constant concentration of GLP-1 (0.05 nM) was added to the assay plate after the diluted peptides. Incubation continued for 5 h at 37° C., 5% CO2 and was followed by the addition of an equivalent volume (100 μL) of LucLite luminescence substrate reagent (Perkin-Elmer). MicroBeta 1450 liquid scintillation counting (Perkin-Elmer) quantified the luminescence signal in counts per second (cps) after shaking the plate at 600 rpm for 3 min. Data was plotted using Origin software (OriginLab) and the effective concentration 50 (EC50) or inhibitory concentration 50 (IC50) was determined by sigmoidal fitting. Potency was determined by comparative analysis of relative EC50 or IC50 values. Each experiment was repeated at least three times with each sample assayed in duplicate.

[1] = Table 4, Aib variants of 9-40am Jant4 K40[C16], read-out: Bioactivity IC50
[2] = 80 mM ammonium bicarbonate buffer, pH 7.7
[3] = PBS, pH 7.7, Solubility [mg/mL] PBS pH7.7, Table 4, PBS pH7.7
[4] = Table 2, C16 linker variants of 9-40amide Jant4 K40[X], read-out: Biactivity IC50
[5] = 80 mM ammonium bicarbonate buffer, pH 7.7, Solubility [mg/mL] 80 mM AmBicarb pH7.7, Table 2, 80 mM AmBicarb pH7.7
[6] = Table 5, d-AA variants of 9-40am Jant4 K40[C16], read-out: Bioactivity KC50

Row | Compound | IC50 (GLP-1R; [1]) [nM] | solubility (Solubility in buffer; [2]) [µg/mL] | solubility (Solubility in buffer; [3]) [µg/mL] | IC50 (GLP-1R; [4]) [nM] | solubility (Solubility in buffer; [5]) [µg/mL] | IC50 (GLP-1R; [6]) [nM]
1 | CCCCCCCCCCCCCCCC(=O)NCCCC[C@H](NC(=O)[C@H](CO)NC(=O)[C@@H]1CCCN1C(=O)[C@@H]1CCCN1C(=O)[C@@H]1CCCN1C(=O)[C@H](C)NC(=O)CNC(=O)[C@H](CO)NC(=O)[C@H](CO)NC(=O)[C@@H]1CCCN1C(=O)CNC(=O)CNC(=O)[C@H](CCCCN)NC(=O)[C@@H](NC(=O)[C@H](CC(C)C)NC(=O)[C@H](Cc1c[nH]c2ccccc12)NC(=O)[C@H](C)NC(=O)[C@@H](NC(=O)[C@H](Cc1ccccc1)NC(=O)[C@H](CCC(=O)O)NC(=O)[C@H](CCCNC(=N)N)NC(=O)C(C)(C)NC(=O)[C@H](C)NC(=O)[C@H](CCC(N)=O)NC(=O)[C@H](CCC(=O)O)NC(=O)[C@H](CCC(=O)O)NC(=O)[C@H](CC(C)C)NC(=O)[C@H](Cc1ccc(O)cc1)NC(=O)[C@H](CO)NC(=O)[C@H](CO)NC(=O)[C@@H](NC(=O)[C@@H](N)CC(=O)O)C(C)C)[C@@H](C)CC)C(C)C)C(N)=O [compound 45] (H-DVSSYLEEQA[Aib]REFIAWLVKGGPSSGAPPPSK(Palmitoyl)-NH2; N-terminus assumed) | 8 | 11100 (≈ 3060 µM) | 400 (≈ 110 µM) |  |  | 
2 | CCCCCCCCCCCCCCCC(=O)NCCOCCOCC(=O)N[C@@H](CCC(=O)N[C@@H](CCC(=O)NCCOCCOCC(=O)NCCCC[C@H](NC(=O)[C@H](CO)NC(=O)[C@@H]1CCCN1C(=O)[C@@H]1CCCN1C(=O)[C@@H]1CCCN1C(=O)[C@H](C)NC(=O)CNC(=O)[C@H](CO)NC(=O)[C@H](CO)NC(=O)[C@@H]1CCCN1C(=O)CNC(=O)CNC(=O)[C@H](CCCCN)NC(=O)[C@@H](NC(=O)[C@H](CC(C)C)NC(=O)[C@H](Cc1c[nH]c2ccccc12)NC(=O)[C@H](C)NC(=O)[C@@H](NC(=O)[C@H](Cc1ccccc1)NC(=O)[C@H](CCC(=O)O)NC(=O)[C@H](CCCNC(=N)N)NC(=O)[C@@H](NC(=O)[C@H](C)NC(=O)[C@H](CCC(N)=O)NC(=O)[C@H](CCC(=O)O)NC(=O)[C@H](CCC(=O)O)NC(=O)[C@H](CC(C)C)NC(=O)[C@H](Cc1ccc(O)cc1)NC(=O)[C@H](CO)NC(=O)[C@H](CO)NC(=O)[C@@H](NC(=O)[C@@H](N)CC(=O)O)C(C)C)C(C)C)[C@@H](C)CC)C(C)C)C(N)=O)C(=O)O)C(=O)O [compound 60] (H-DVSSYLEEQAVREFIAWLVKGGPSSGAPPPSK([AEEA-γGlu-γGlu-AEEA-Palmitoyl])-NH2; N-terminus assumed) |  |  |  | 5 | > 25000 | 
3 | CCCCCCCCCCCCCCCC(=O)N[C@@H](CCC(=O)NCCCC[C@H](NC(=O)[C@H](CO)NC(=O)[C@@H]1CCCN1C(=O)[C@@H]1CCCN1C(=O)[C@@H]1CCCN1C(=O)[C@H](C)NC(=O)CNC(=O)[C@H](CO)NC(=O)[C@H](CO)NC(=O)[C@@H]1CCCN1C(=O)CNC(=O)CNC(=O)[C@H](CCCCN)NC(=O)[C@@H](NC(=O)[C@H](CC(C)C)NC(=O)[C@H](Cc1c[nH]c2ccccc12)NC(=O)[C@H](C)NC(=O)[C@@H](NC(=O)[C@H](Cc1ccccc1)NC(=O)[C@H](CCC(=O)O)NC(=O)[C@H](CCCNC(=N)N)NC(=O)[C@@H](NC(=O)[C@H](C)NC(=O)[C@H](CCC(N)=O)NC(=O)[C@H](CCC(=O)O)NC(=O)[C@H](CCC(=O)O)NC(=O)[C@H](CC(C)C)NC(=O)[C@H](Cc1ccc(O)cc1)NC(=O)[C@H](CO)NC(=O)[C@H](CO)NC(=O)[C@@H](NC(=O)[C@@H](N)CC(=O)O)C(C)C)C(C)C)[C@@H](C)CC)C(C)C)C(N)=O)C(=O)O [compound 52] (H-DVSSYLEEQAVREFIAWLVKGGPSSGAPPPSK([γGlu-Palmitoyl])-NH2; N-terminus assumed) |  |  |  | 12 | > 20000 | 
4 | CCCCCCCCCCCCCCCC(=O)NCCOCCOCC(=O)N[C@@H](CCC(=O)NCCOCCOCC(=O)N[C@@H](CCC(=O)NCCCC[C@H](NC(=O)[C@H](CO)NC(=O)[C@@H]1CCCN1C(=O)[C@@H]1CCCN1C(=O)[C@@H]1CCCN1C(=O)[C@H](C)NC(=O)CNC(=O)[C@H](CO)NC(=O)[C@H](CO)NC(=O)[C@@H]1CCCN1C(=O)CNC(=O)CNC(=O)[C@H](CCCCN)NC(=O)[C@@H](NC(=O)[C@H](CC(C)C)NC(=O)[C@H](Cc1c[nH]c2ccccc12)NC(=O)[C@H](C)NC(=O)[C@@H](NC(=O)[C@H](Cc1ccccc1)NC(=O)[C@H](CCC(=O)O)NC(=O)[C@H](CCCNC(=N)N)NC(=O)[C@@H](NC(=O)[C@H](C)NC(=O)[C@H](CCC(N)=O)NC(=O)[C@H](CCC(=O)O)NC(=O)[C@H](CCC(=O)O)NC(=O)[C@H](CC(C)C)NC(=O)[C@H](Cc1ccc(O)cc1)NC(=O)[C@H](CO)NC(=O)[C@H](CO)NC(=O)[C@@H](NC(=O)[C@@H](N)CC(=O)O)C(C)C)C(C)C)[C@@H](C)CC)C(C)C)C(N)=O)C(=O)O)C(=O)O [compound 62] (H-DVSSYLEEQAVREFIAWLVKGGPSSGAPPPSK([γGlu-AEEA-γGlu-AEEA-Palmitoyl])-NH2; N-terminus assumed) |  |  |  | 7 | > 25000 | 
5 | CCCCCCCCCCCCCCCC(=O)NCCCC[C@H](NC(=O)[C@H](CO)NC(=O)[C@@H]1CCCN1C(=O)[C@@H]1CCCN1C(=O)[C@@H]1CCCN1C(=O)[C@H](C)NC(=O)CNC(=O)[C@H](CO)NC(=O)[C@H](CO)NC(=O)[C@@H]1CCCN1C(=O)CNC(=O)CNC(=O)[C@H](CCCCN)NC(=O)[C@@H](NC(=O)[C@H](CC(C)C)NC(=O)[C@H](Cc1c[nH]c2ccccc12)NC(=O)[C@H](C)NC(=O)[C@@H](NC(=O)[C@H](Cc1ccccc1)NC(=O)[C@H](CCC(=O)O)NC(=O)[C@H](CCCNC(=N)N)NC(=O)[C@@H](NC(=O)C(C)(C)NC(=O)[C@H](CCC(N)=O)NC(=O)[C@H](CCC(=O)O)NC(=O)[C@H](CCC(=O)O)NC(=O)[C@H](CC(C)C)NC(=O)[C@H](Cc1ccc(O)cc1)NC(=O)[C@H](CO)NC(=O)[C@H](CO)NC(=O)[C@@H](NC(=O)[C@@H](N)CC(=O)O)C(C)C)C(C)C)[C@@H](C)CC)C(C)C)C(N)=O [compound 46] (H-DVSSYLEEQ[Aib]VREFIAWLVKGGPSSGAPPPSK(Palmitoyl)-NH2; N-terminus assumed) | 7 | 17500 (≈ 4790 µM) | 700 (≈ 192 µM) |  |  | 
6 | CCCCCCCCCCCCCCCC(=O)NCCCC[C@H](NC(=O)[C@H](CO)NC(=O)[C@@H]1CCCN1C(=O)[C@@H]1CCCN1C(=O)[C@@H]1CCCN1C(=O)[C@H](C)NC(=O)CNC(=O)[C@H](CO)NC(=O)[C@H](CO)NC(=O)[C@@H]1CCCN1C(=O)CNC(=O)CNC(=O)[C@H](CCCCN)NC(=O)[C@@H](NC(=O)[C@H](CC(C)C)NC(=O)[C@H](Cc1c[nH]c2ccccc12)NC(=O)[C@H](C)NC(=O)[C@@H](NC(=O)[C@H](Cc1ccccc1)NC(=O)[C@@H](CCC(=O)O)NC(=O)[C@H](CCCNC(=N)N)NC(=O)[C@@H](NC(=O)[C@H](C)NC(=O)[C@H](CCC(N)=O)NC(=O)[C@H](CCC(=O)O)NC(=O)[C@H](CCC(=O)O)NC(=O)[C@H](CC(C)C)NC(=O)[C@H](Cc1ccc(O)cc1)NC(=O)[C@H](CO)NC(=O)[C@H](CO)NC(=O)[C@@H](NC(=O)[C@@H](N)CC(=O)O)C(C)C)C(C)C)[C@@H](C)CC)C(C)C)C(N)=O [compound 88] (H-DVSSYLEEQAVR[dE]FIAWLVKGGPSSGAPPPSK(Palmitoyl)-NH2) |  | 1700 (≈ 467 µM) |  |  |  | 27
7 | CCCCCCCCCCCCCCCC(=O)NCCCC[C@H](NC(=O)[C@H](CO)NC(=O)[C@@H]1CCCN1C(=O)[C@@H]1CCCN1C(=O)[C@@H]1CCCN1C(=O)[C@H](C)NC(=O)CNC(=O)[C@H](CO)NC(=O)[C@H](CO)NC(=O)[C@@H]1CCCN1C(=O)CNC(=O)CNC(=O)[C@H](CCCCN)NC(=O)[C@@H](NC(=O)[C@H](CC(C)C)NC(=O)[C@H](Cc1c[nH]c2ccccc12)NC(=O)[C@H](C)NC(=O)[C@@H](NC(=O)[C@H](Cc1ccccc1)NC(=O)[C@H](CCC(=O)O)NC(=O)[C@@H](CCCNC(=N)N)NC(=O)[C@@H](NC(=O)[C@H](C)NC(=O)[C@H](CCC(N)=O)NC(=O)[C@H](CCC(=O)O)NC(=O)[C@H](CCC(=O)O)NC(=O)[C@H](CC(C)C)NC(=O)[C@H](Cc1ccc(O)cc1)NC(=O)[C@H](CO)NC(=O)[C@H](CO)NC(=O)[C@@H](NC(=O)[C@@H](N)CC(=O)O)C(C)C)C(C)C)[C@@H](C)CC)C(C)C)C(N)=O [compound 87] (H-DVSSYLEEQAV[dR]EFIAWLVKGGPSSGAPPPSK(Palmitoyl)-NH2; N-terminus assumed) |  | 800 (≈ 220 µM) |  |  |  | 16

Reference: patent US20240058422A1, “GLUCAGON-LIKE PEPTIDE-1 RECEPTOR ANTAGONISTS” (INDIANA UNIVERSITY RESEARCH AND TECHNOLOGY CORPORATION, priority 2022, published 2024)
